“And” between values parts separate entries of the source, which are not always exact repeats. Equal values may be shown once. Read-outs that look alike come from different tables or passages of the source.
What was measured:
[1] = test system: platinum resistant ovarian cancer cells (A2780/DDPt); conditions: for Days to 3 Times Tumor Weight: median; for T − C (tumor growth delay): median time to 3 times original size, drug group minus control; for Persistence of tumor growth delay profiles: FIGS. 2A and 2B, dotted lines
Experimental: Female athymic (Ncr:Nu) mice were implanted subcutaneously with A2780/DDPt tumor fragments and the tumors were allowed to reach a weight range of 163 to 189 mg. […] One group of animals was treated with cisplatin at a dose of 8 mg/kg. The control group received normal saline. The animals were weighed and the tumors measured twice weekly after administration of the first drug injection.

[2] = test system: human colorectal cancer cells (HT-29); conditions: for Tumor Regression Complete / Tumor Regression Partial: n=10 mice; for Tumor Regression Complete: complete: unpalpable; for Tumor Regression Partial: partial: <50% of size on day 1; for T − C (tumor growth delay): median time to 2 times original size, drug group minus control; for Days to 2 Times Tumor Weight: median
Experimental: (§1) Female athymic (Ncr:Nu) mice were implanted subcutaneously with HT-29 tumor fragments and the tumors were allowed to reach a weight range of 162 to 188 mg. […] The control group received normal saline. The animals were weighed and the tumors measured twice weekly after administration of the first drug injection.

[3] = test system: oropharyngeal carcinoma cancer cells (KB)
Experimental: as §1, with “KB” for “HT-29”, “160” for “162”, “190” for “188”

[4] = 40 mg/kg i.v. every fourth day x3
[5] = 60 mg/kg i.v. every fourth day x3
[6] = 90 mg/kg i.v. every fourth day x3
[7] = 40, 60 or 90 mg/kg i.v. every fourth day x3
[8] = all doses (40, 60, 90 mg/kg i.v.)
[9] = any of the doses (40, 60, 90 mg/kg)

Molecule: N.N.[Cl][Pt][Cl] [Cisplatin]
- Days to 3 Times Tumor Weight ([1]; 8 mg/kg): 8.9 days
- T − C (tumor growth delay) ([1]; 8 mg/kg): 0.5 days

Molecule: CCc1c2c(nc3ccc(OC(=O)N4CCC(N5CCCCC5)CC4)cc13)-c1cc3c(c(=O)n1C2)COC(=O)[C@]3(O)CC [Irinotecan]
- Tumor Regression Complete [2, 4]: 0
- Tumor Regression Partial [2, 4]: 0
- T − C (tumor growth delay) ([2]; 40 mg/kg): 8.8 days
- Days to 2 Times Tumor Weight [2, 5]: 21.4 days
- Tumor Regression Complete [2, 5]: 0
- Tumor Regression Partial [2, 5]: 0
- Tumor Regression Complete [2, 6]: 0
- Tumor Regression Partial [2, 6]: 0
- Decrease in tumor growth compared to the control group ([2]; 40, 60, 90 mg/kg groups): did not show a statistically significant decrease
- Maximum loss in body weight [2, 7]: 8%
- Tolerability [2, 8]: well tolerated
- Tumor regression [2, 9]: not observed
- Days to 3 Times Tumor Weight [1, 4]: 13.0 days
- T − C (tumor growth delay) ([1]; 40 mg/kg): 4.6 days
- Days to 3 Times Tumor Weight [1, 5]: 16.4 days
- T − C (tumor growth delay) ([1]; 60 mg/kg): 8.0 days
- Days to 3 Times Tumor Weight [1, 6]: 18.6 days
- T − C (tumor growth delay) ([1]; 90 mg/kg): 10.2 days
- Decrease in tumor growth compared to the control group ([1]; 40, 60, 90 mg/kg groups): did not show a statistically significant decrease
- Maximum loss in body weight [1, 7]: 2%
- Persistence of tumor growth delay profiles [1]: 14 days
- Tolerability [1, 8]: well tolerated
- Tolerability [3, 8]: well tolerated
- Tumor regression [3, 9]: not observed
- Maximum loss in body weight ([3]; mouse, in vivo): 2%

Molecule: H-(Irino.HCl)10(EOZ)190-T-Folate [Folate-POZ-irinotecan]
- Complete tumor regression, share of mice ([3]; mouse, in vivo): 70% and 50%
- Complete tumor regression, share of treated mice ([3]; mouse, in vivo): > 50%
- Tumor growth delay (T-C value) compared to irinotecan ([3]; mouse, in vivo): significantly higher

Molecule: H-(Irino.HCl)10(EOZ)200-T-PA [POZ-irinotecan]
- Days to 2 Times Tumor Weight [2, 4]: 31.4 days
- Tumor Regression Complete [2, 4]: 0
- T − C (tumor growth delay) ([2]; 40 mg/kg): 23.4 days
- Median Duration of Regression [2, 5]: 18 days
- Days to 2 Times Tumor Weight [2, 5]: >60.0 days
- Tumor Regression Complete [2, 5]: 1
- T − C (tumor growth delay) ([2]; 60 mg/kg): >52 days
- Median Duration of Regression [2, 6]: 25 days
- Days to 2 Times Tumor Weight [2, 6]: >60.0 days
- Tumor Regression Complete [2, 6]: 7
- T − C (tumor growth delay) ([2]; 90 mg/kg): >52 days
- Tumor growth delay (T-C value) compared to irinotecan ([2]; all 3 doses tested, p<0.001): significantly higher
- Days to 3 Times Tumor Weight [1, 4]: 12.7 days
- T − C (tumor growth delay) ([1]; 40 mg/kg): 4.3 days
- Days to 3 Times Tumor Weight [1, 5]: 20.3 days
- T − C (tumor growth delay) ([1]; 60 mg/kg): 11.9 days
- Tumor growth delay (T-C value) compared to irinotecan ([1]; 90 mg/kg dose, p<0.001): significantly higher
- Days to 3 Times Tumor Weight [1, 6]: 36.3 days
- T − C (tumor growth delay) ([1]; 90 mg/kg): 27.9 days
- Persistence of tumor growth delay profiles [1]: at least 32 days
